Patent US4859693A, “Antiinflammatory carbinoloimidazoles” (E. I. Du Pont de Nemours and Company, priority 1988, dated 1989)

What follows are compounds tested on inflammation induced by tetradecanoyl phorbol acetate (TPA) (assay: TPA model: inflammation (ear edema) induced by tetradecanoyl phorbol acetate in mice). Settings: 100 μg/ear topical, mouse ear, TPA stimulus, edema measured four hours later.
Assay type: in vivo
Text: One such model is the inflammation induced by tetradecanoyl phorbol acetate (TPA). The test methods are modified from those of Marks et al. (Cancer Res, 36, p. 2636, 1976). The TPA model is a murine model which mimics many of the inflammatory changes which occur in human disease such as psoriasis. In this model, elevated levels of inflammatory arachidonic acid metabolites are found, and an influx or polymorphonuclear leukocytes (PMN) is observed. The procedure used to evaluate the compounds of this invention is as follows: the test compound (100 μg/ear) is applied to the ears of mice in an appropriate vehicle, such as acetone, and then the inflammatory stimulus is applied to the right ear. Four hours later, the edema is measured by removing standard sized discs from the mouse ears using a biopsy punch. The masses of the discs are then determined.

Row | Structure (SMILES) | % Inhibition of Control Inflammation [%]
1 | CCC(n1ccnc1)C(O)(c1ccc(F)cc1)c1ccc(F)cc1 (racemic) [Example 3a, 1,1-bis(4-fluorophenyl)-2-(1-imidazolyl)butanol] | 40
2 | OC(CCCn1ccnc1)(c1ccc(F)cc1)c1ccc(F)cc1 [Example 1a, 1,1-bis(4-fluorophenyl)-4-(1-imidazolyl)butanol] | 31
3 | OC(Cn1ccnc1)(c1ccc(F)cc1)c1ccc(Br)cc1 (centres unmarked) [Example 2b, 1-(4-fluorophenyl)-1-(4-bromophenyl)-2-(1-imidazolyl)-ethanol] | 41
4 | CC(n1ccnc1)C(O)(c1ccc(F)cc1)c1ccc(F)cc1 (centres unmarked) [Example 3b] | 40
5 | CCCC(n1ccnc1)C(O)(c1ccc(F)cc1)c1ccc(F)cc1 (centres unmarked) [Example 3c] | 30
6 | CC(n1ccnc1)C(O)(c1ccc(Cl)cc1)c1ccc(Cl)cc1 (centres unmarked) [Example 3e] | 55
7 | Cc1ccc(C(O)(c2ccc(C)cc2)[C@H](C)n2ccnc2)cc1 [Example 4a, (S)-1,1-bis(4-methylphenyl)-2-(1-imidazolyl)propanol] | 33
8 | C[C@@H](n1ccnc1)C(O)(c1ccc(Cl)cc1)c1ccc(Cl)cc1 [Example 5a, (R)-1,1-bis(4-chlorophenyl)-2-(1-imidazolyl)propanol] | 61
